Data on 4 compounds can be found in patent US5264586A, “Analogs of calicheamicin gamma1I, method of making and using the same” (priority 1992, dated 1993).

One assay has as its system DNA. To be noted: double stranded DNA; cited from earlier work.
A further assay has as its system murine tumors. As to conditions: cited from earlier work.
In assay [1] the test system is ATCC Ovcar 3 (Ovarian carcinoma). Put plainly: Sulforhodamine B cytotoxicity assay, Ovcar 3. To be noted: 72 hours, SRB. In kind it is cell-based. Here is the method:
(§1) Sulfurodamine B Cytotoxicity Assay
(§2) Cytotoxicity assays using (-)-calicheamicinone were carried out as follows:
(§3) 1. Preparation of target cells in 96-well plates
(§4) g. Adjust volume of cell suspension with T.C. media to give a density of 1×10^5 cells/mL.
(§5) j. Incubate plates for 24 hours at 37° C., 5-10 percent CO2 in a humidified incubator.
(§6) a. Stock drug solutions were prepared by dissolving drug in the appropriate solvent (determined during chemical characterization studies) and sterile filtering the drug-solvent solution through a sterile 0.2 μ filter unit. An aliquot was taken from each filtered drug solution and the O.D. was measured to determine the drug concentration.
(§7) b. Dilute the stock drug solution prepared above with T.C. medium to the desired initial concentration (10^-2 -10^-4 M). A minimum volume of 220 μL of diluted drug is required per 96-well plate used in the assay.
(§8) b. Add 100 μL of the initial compound dilution to adjacent duplicate wells in Columns #2. (Four materials can be tested in duplicate per 96-well plate.)
(§9) d. Transfer 10 μL to the appropriate wells in Column #4 and continue to make 1:10 dilutions of compound across the plate through Column #12.
f. […]
(§10) g. Read plates on a microtiter plate reader at […].
(§11) IC50 values; i.e., the concentration of Compound required to kill one-half of the treated cells, were then calculated. […]
Background: The SRB assay estimates cell density from bound dye.

The subject of assay [2] is CHO (Chinese hampster ovary). As to the kind of experiment: Sulforhodamine B cytotoxicity assay, CHO. In kind it is cell-based. As to conditions: 72 hours, SRB. How it is done: as §1, §2, §3, §4, §5, §6, §7, §8, §9
f. […]
as §10, §11

Assay [3] concerns ATCC HL-60 (promyeocytic leukemia). Put plainly: Sulforhodamine B cytotoxicity assay, HL-60. Type of assay: cell-based. As to conditions: 72 hours, SRB. Here is the method:
as §1, §2, §3, §4, §5, §6, §7, §8, §9
f. […]
as §10, §11

Assay [4] deals with ATCC MCF-7 (Breast carcinoma). As to the kind of experiment: Sulforhodamine B cytotoxicity assay, MCF-7. Type of assay: cell-based. As to conditions: SRB. Here is the method: as §1, §2, §3, §4, §5, §6, §7, §8, §9
f. […]
as §10, §11

The test system of assay [5] is ATCC HT-29 (Colon carcinoma). As to the kind of experiment: Sulforhodamine B cytotoxicity assay, HT-29. In kind it is cell-based. As to conditions: 72 hours, SRB. Here is the method: as §1, §2, §3, §4, §5, §6, §7, §8, §9
f. […]
as §10, §11

For assay [6], the system named is ATCC P-388 (Mouse leukemia). As to the kind of experiment: Sulforhodamine B cytotoxicity assay, P-388. Type of assay: cell-based. To be noted: SRB. How it is done: as §1, §2, §3, §4, §5, §6, §7, §8, §9
f. […]
as §10, §11

The subject of assay [7] is ATCC Capan-1 (pancreatic carcinoma). Put plainly: Sulforhodamine B cytotoxicity assay, Capan-1. In kind it is cell-based. As to conditions: 72 hours, SRB. How it is done:
as §1, §2, §3, §4, §5, §6, §7, §8, §9
f. […]
as §10, §11

Assay [8] concerns ATCC SK-MEL-28 (Melanoma). Put plainly: Sulforhodamine B cytotoxicity assay, SK-MEL-28. To be noted: 72 hours, SRB. Type of assay: cell-based. How it is done: as §1, §2, §3, §4, §5, §6, §7, §8, §9
f. […]
as §10, §11

For assay [9], the system named is NHDF (Normal human dermal fibroblast). As to the kind of experiment: Sulforhodamine B cytotoxicity assay, NHDF. In kind it is cell-based. As to conditions: 72 hours, SRB. Here is the method: as §1, §2, §3, §4, §5, §6, §7, §8, §9
f. […]
as §10, §11

Assay [10] deals with ATCC Molt-4 (T-cell leukemia). As to the kind of experiment: Sulforhodamine B cytotoxicity assay, Molt-4. As to conditions: 72 hours, SRB. In kind it is cell-based. How it is done: as §1, §2, §3, §4, §5, §6, §7, §8, §9
f. […]
as §10, §11

The subject of the next assay is UCLA-P3 (lung carcinoma). Put plainly: Sulforhodamine B cytotoxicity assay, UCLA-P3. Type of assay: cell-based. To be noted: SRB. How it is done: as §1, §2, §3, §4, §5, §6, §7, §8, §9
f. […]
as §10, §11

The subject of the next assay is H-322 (lung carcinoma). Put plainly: Sulforhodamine B cytotoxicity assay, H-322. As to conditions: NCI-H322, 72 hours, SRB. Type of assay: cell-based. How it is done: as §1, §2, §3, §4, §5, §6, §7, §8, §9
f. […]
as §10, §11

Consider `CCN[C@H]1CO[C@@H](O[C@H]2[C@H](O[C@H]3C#C/C=C\C#C[C@]4(O)CC(=O)C(NC(=O)OC)=C3/C4=C\CSSSC)O[C@H](C)[C@@H](NO[C@H]3C[C@H](O)[C@H](SC(=O)c4c(C)c(I)c(O[C@@H]5O[C@@H](C)[C@H](O)[C@@H](OC)[C@H]5O)c(OC)c4OC)[C@@H](C)O3)[C@@H]2O)C[C@@H]1OC` [calicheamicin], for which, in the assay with DNA, the “DNA cleavage site / sequence specificity” value is 5' side of a TCCT sequence. For the same compound, the “optimal dose against murine tumors” value in the assay on murine tumors (murine tumors) is on record as 0.5-1.5 microgram (μg) per kilogram (kg) of body weight. In addition, in the assay with murine tumors (vs adriamycin), the “activity relative to adriamycin against murine tumors” value is recorded as “about 1000 -fold more active”.
Turning to `COC(=O)NC1=C2/C(=C\CSSSC)[C@](O)(C#C/C=C\C#C[C@@H]2O)CC1=O` [(-)-calicheamicinone, (-)-Calicheamicinone], the half-inhibitory concentration (IC50) (as a rule, the concentration at which inhibition is half-maximal) in [1] was found to be 25000 nM; in [2], 63000 nM; in assay [3] it was 200 nM; in assay [4] (72 hours) it was 13000 nM; in assay [5] it was 28000 nM; in assay [6] (72 hours), 390 nM. For the same compound, the half-inhibitory concentration (IC50) in [7] turned out to be 3100 nM; in [8], 25000 nM; in assay [9], 13000 nM; in [10] it was 1 nM; in the assay on UCLA-P3 (lung carcinoma) (72 hours), 25000 nM.
Turning to `COc1cccc2c1C(=O)c1c(O)c3c(c(O)c1C2=O)C[C@@](O)(C(C)=O)C[C@@H]3O[C@H]1C[C@H](N)[C@H](O)[C@H](C)O1` [Daunomycin, daunomycin], the IC50 came out at 390 nM in [1] (Homo sapiens); 1600 nM in assay [2]; 200 nM in assay [3] (Homo sapiens); 390 nM in assay [4] (Homo sapiens, MCF7, 72 hours); 1600 nM in [5] (Homo sapiens); 200 nM in assay [6] (Mus musculus, P388, 72 hours). Also, the 50% inhibitory concentration (IC50) amounted to 780 nM in assay [7] (Homo sapiens); 1600 nM with H-322 (lung carcinoma); 1600 nM in assay [8] (Homo sapiens); 390 nM in assay [9] (Homo sapiens); 0.1 nM in assay [10] (Homo sapiens); 1600 nM in the assay on UCLA-P3 (lung carcinoma) (Homo sapiens, UCLA P-3, 72 hours).
In the case of Neocarzinostatin, the “DNA cleavage site / sequence specificity” value with DNA was “sequence-specificity in its DNA cleavage”.
